Species: Rattus norvegicus
Assay: Open TG-GATES - Regimen: Single
Type: toxicity, organism-based, Sprague-Dawley
Set-up: regimen Single, gender Male, age 6 weeks
Settings: in vivo, po, 0 mg/kg, route gavage, dose level Control; for APTT / Bas / Eos / Fbg / Hb / Ht / Lym / MCH / MCHC / MCV / Mono / Neu / PT / Plat / RBC / Ret / WBC: tissue Blood; for KIDNEY_L / KIDNEY_R / KIDNEY_TOTAL: tissue Kidney; for LIVER: tissue Liver; for A/G / ALP / ALT / AST / BUN / CRE / Ca / Cl / DBIL / GLC / IP / K / LDH / Na / PL / RALB / TBIL / TC / TG / TP / gamma-GTP: tissue Plasma

## CN1C(=O)OC(C)(C)C1=O [TRIMETHADIONE]
3 h
  TERMINAL_BW: 205.3 g
  APTT: 17.8 s
  Bas: 0.2%
  Eos: 0.8%
  Fbg: 261 mg/dL
  Hb: 13.4 g/dL
  Ht: 40.1%
  Lym: 79.8%
  MCH: 21.8 pg
  MCHC: 33.5%
  MCV: 65.1 fL
  Mono: 3%
  Neu: 16%
  PT: 13.8 s
  Plat: 125.1 x10_4/uL
  RBC: 616.4 x10_4/ul
  Ret: 8.2%
  WBC: 86.1 x10_2/uL
  KIDNEY_L: 1 g
  KIDNEY_R: 0.9 g
  KIDNEY_TOTAL: 1.9 g
  LIVER: 9 g
  A/G: 0.9
  ALP: 1845.4 IU/L
  ALT: 43.8 IU/L
  AST: 85 IU/L
  BUN: 9.6 mg/dL
  CRE: 0.2 mg/dL
  Ca: 10.6 mg/dL
  Cl: 107.4 meq/L
  DBIL: 0.006 mg/dL
  GLC: 181.4 mg/dL
  IP: 8.9 mg/dL
  K: 4.2 meq/L
  LDH: 152 IU/L
  Na: 140.6 meq/L
  PL: 133.8 mg/dL
  RALB: 2.5 g/dL
  TBIL: 0.07 mg/dL
  TC: 72.2 mg/dL
  TG: 42.6 mg/dL
  TP: 5.3 g/dL
  gamma-GTP: 1.2 IU/L
6 h
  TERMINAL_BW: 205.6 g
  APTT: 18.9 s
  Bas: 0%
  Eos: 1%
  Fbg: 284.2 mg/dL
  Hb: 13.1 g/dL
  Ht: 39.6%
  Lym: 77.4%
  MCH: 21.4 pg
  MCHC: 33.2%
  MCV: 64.4 fL
  Mono: 2.4%
  Neu: 19%
  PT: 13.8 s
  Plat: 122.3 x10_4/uL
  RBC: 615.2 x10_4/ul
  Ret: 8.7%
  WBC: 78 x10_2/uL
  KIDNEY_L: 0.9 g
  KIDNEY_R: 0.9 g
  KIDNEY_TOTAL: 1.9 g
  LIVER: 8.6 g
  A/G: 0.9
  ALP: 1304.6 IU/L
  ALT: 34.4 IU/L
  AST: 72.2 IU/L
  BUN: 9 mg/dL
  CRE: 0.2 mg/dL
  Ca: 10.5 mg/dL
  Cl: 108.2 meq/L
  DBIL: 0.002 mg/dL
  GLC: 176.4 mg/dL
  IP: 8.9 mg/dL
  K: 4.2 meq/L
  LDH: 109.8 IU/L
  Na: 140.6 meq/L
  PL: 145.4 mg/dL
  RALB: 2.5 g/dL
  TBIL: 0.064 mg/dL
  TC: 83 mg/dL
  TG: 49.6 mg/dL
  TP: 5.4 g/dL
  gamma-GTP: 1.4 IU/L
9 h
  TERMINAL_BW: 205.5 g
  APTT: 19.5 s
  Bas: 0%
  Eos: 0.8%
  Fbg: 276.8 mg/dL
  Hb: 13.5 g/dL
  Ht: 40.8%
  Lym: 75.2%
  MCH: 20.9 pg
  MCHC: 33%
  MCV: 63.4 fL
  Mono: 2.2%
  Neu: 21.4%
  PT: 13.7 s
  Plat: 114.8 x10_4/uL
  RBC: 642.8 x10_4/ul
  Ret: 7.6%
  WBC: 82.3 x10_2/uL
  KIDNEY_L: 0.9 g
  KIDNEY_R: 0.9 g
  KIDNEY_TOTAL: 1.7 g
  LIVER: 7.9 g
  A/G: 0.9
  ALP: 1637 IU/L
  ALT: 38 IU/L
  AST: 77 IU/L
  BUN: 9.6 mg/dL
  CRE: 0.2 mg/dL
  Ca: 10.5 mg/dL
  Cl: 108 meq/L
  DBIL: 0.002 mg/dL
  GLC: 176.6 mg/dL
  IP: 9.7 mg/dL
  K: 3.9 meq/L
  LDH: 76.4 IU/L
  Na: 141.4 meq/L
  PL: 133.6 mg/dL
  RALB: 2.5 g/dL
  TBIL: 0.064 mg/dL
  TC: 72.8 mg/dL
  TG: 31.2 mg/dL
  TP: 5.4 g/dL
  gamma-GTP: 1.2 IU/L
24 h
  TERMINAL_BW: 223.7 g
  APTT: 17.1 s
  Bas: 0%
  Eos: 1%
  Fbg: 254 mg/dL
  Hb: 13.1 g/dL
  Ht: 39.5%
  Lym: 77.2%
  MCH: 21.8 pg
  MCHC: 33%
  MCV: 66.1 fL
  Mono: 3%
  Neu: 18.2%
  PT: 13.3 s
  Plat: 113.7 x10_4/uL
  RBC: 598 x10_4/ul
  Ret: 7.3%
  WBC: 99.1 x10_2/uL
  KIDNEY_L: 1 g
  KIDNEY_R: 0.9 g
  KIDNEY_TOTAL: 1.9 g
  LIVER: 10.4 g
  A/G: 0.9
  ALP: 1802.2 IU/L
  ALT: 47.2 IU/L
  AST: 74.8 IU/L
  BUN: 15 mg/dL
  CRE: 0.2 mg/dL
  Ca: 10.9 mg/dL
  Cl: 104.8 meq/L
  DBIL: 0.01 mg/dL
  GLC: 165.4 mg/dL
  IP: 7.8 mg/dL
  K: 4 meq/L
  LDH: 82 IU/L
  Na: 142.8 meq/L
  PL: 161 mg/dL
  RALB: 2.6 g/dL
  TBIL: 0.056 mg/dL
  TC: 85.6 mg/dL
  TG: 92.2 mg/dL
  TP: 5.6 g/dL
  gamma-GTP: 1 IU/L

From ChEMBL document CHEMBL3885861, “Open TG-GATES”
